This note sets out measurements from US11939354B1, “Fusion peptide inhibitors of human coronavirus 229E” (KING FAISAL UNIVERSITY, priority 2023, dated 2024).

One data set relates to HCoV-229E. As to conditions: 24 h.
Data set [1] in a line: Cytotoxicity (CC50) of tested peptides. As to conditions: African green monkey, Vero E6 cells.
Data set [2] concerns the target HCoV-229E spike (S) protein (human coronavirus 229E, UniProt P15423). Kind of data set: cell-based or functional assay.

Ends that are not written are not given here.

As for `CC[C@H](C)[C@H](NC(=O)CNC(=O)[C@H](CO)NC(=O)[C@@H](NC(=O)[C@H](CC(=O)O)NC(=O)CNC(=O)[C@H](CC(C)C)NC(=O)[C@@H](NC(=O)[C@@H](N)Cc1c[nH]cn1)C(C)C)[C@@H](C)CC)C(=O)N[C@@H](CC(N)=O)C(=O)N[C@@H](C)C(=O)N[C@@H](CO)C(=O)N[C@H](C(=O)N[C@H](C(=O)N[C@@H](CCC(N)=O)C(=O)N[C@H](C(=O)N[C@@H](CCC(N)=O)C(=O)N[C@@H](CCCCN)C(=O)N[C@@H](CCC(=O)O)C(=O)N[C@H](C(=O)N[C@@H](CC(=O)O)C(=O)N[C@@H](CCCNC(=N)N)C(=O)N[C@@H](CC(C)C)C(=O)N[C@@H](CC(N)=O)C(=O)N[C@@H](CCC(=O)O)C(=O)N[C@H](C(=O)N[C@@H](C)C(=O)N[C@@H](CCCCN)C(=O)N[C@@H](CC(N)=O)C(=O)N[C@@H](CC(C)C)C(=O)N[C@@H](Cc1c[nH]cn1)C(=O)N[C@@H](CCC(=O)O)C(=O)N[C@@H](CO)C(=O)N[C@@H](CC(C)C)C(=O)N[C@H](C(=O)N[C@@H](Cc1ccc(O)cc1)C(=O)N[C@@H](CC(C)C)C(=O)N[C@@H](CCC(N)=O)C(=O)N[C@@H](CCC(=O)O)C(=O)O)[C@@H](C)CC)C(C)C)[C@@H](C)CC)[C@@H](C)CC)C(C)C)C(C)C` [Peptide 121], in the data set with HCoV-229E, half-maximal inhibition (IC50) required 14.2 µM and the “Selectivity Index” value came to 13.06. Besides, the CC50 in data set [1] came to 251 µM.

In the case of “HRLRQIRGIRARVVQIQKEIWRLNEVAKLLNESLIYLQE [Peptide 125]”, in the data set on HCoV-229E, the midpoint of inhibition, the IC50, lay at 14.5 µM and the “Selectivity Index” value was 17.56. In addition, it took 255 µM to reach half-maximal cytotoxicity in data set [1] (CC50).

B1: Peptide 125 (peptide)
peptide: HRLRQIRGIRARVVQIQKEIWRLNEVAKLLNESLIYLQE
Take B1: in data set [2], the “IC50, plaque reduction test against HCoV-229E” value stood at 14.5 µM.

B2: Peptide 121 (peptide)
peptide: HVLGDISGINASVVQIQKEIDRLNEVAKNLHESLIYLQE
Turning to B2, the “IC50, plaque reduction test against HCoV-229E” value in data set [2] is 14.2 µM.

The term IC50 denotes the concentration that gives 50% inhibition. High values mean lower potency, low ones higher potency. As a reminder, the CC50 is the concentration that lowers cell viability or growth by half. The low end stands for harm at low concentration, the high end for better tolerance by the cells.
